Assay results as given in the NIST ThermoML archive (doi:10.1016/j.fluid.2013.11.002).
Numbers after ± are expanded uncertainties.

Columns and labels:
[1] = refractive index (Na D-line) (dimensionless); xn = mol fraction of the nth substance listed; conditions: 101 kPa, Liquid, Standard Abbe refractometry
[2] = refractive index (Na D-line) (dimensionless); conditions: 101.33 kPa, Liquid, Standard Abbe refractometry

## C1CCOC1 [tetrahydrofuran] + O
[1]; 298.15 K, x1 = 0.01
  refractive index: 1.3371 ± 0.0005
[1]; 298.15 K, x1 = 0.02
  refractive index: 1.3409 ± 0.0005
[1]; 298.15 K, x1 = 0.03
  refractive index: 1.3448 ± 0.0005
[1]; 298.15 K, x1 = 0.04
  refractive index: 1.348 ± 0.0005
[1]; 298.15 K, x1 = 0.05
  refractive index: 1.351 ± 0.0005
[1]; 298.15 K, x1 = 0.06
  refractive index: 1.354 ± 0.0005
[1]; 298.15 K, x1 = 1
  refractive index: 1.4061 ± 0.0006
[1]; 303.15 K, x1 = 0.01
  refractive index: 1.3366 ± 0.0005
[1]; 303.15 K, x1 = 0.02
  refractive index: 1.3401 ± 0.0005
[1]; 303.15 K, x1 = 0.03
  refractive index: 1.3431 ± 0.0005
[1]; 303.15 K, x1 = 0.04
  refractive index: 1.347 ± 0.0005
[1]; 303.15 K, x1 = 0.05
  refractive index: 1.3496 ± 0.0005
[1]; 303.15 K, x1 = 0.06
  refractive index: 1.3521 ± 0.0005
[1]; 303.15 K, x1 = 1
  refractive index: 1.4041 ± 0.0006

## O [water]
[2]; 298.15 K
  refractive index: 1.3331 ± 0.0005
[2]; 303.15 K
  refractive index: 1.3326 ± 0.0005
